Test results: patent publication US12691101B2, “Compound and method for preventing or treating of respiratory diseases comprising the same as an active ingredient” (YONSEI UNIVERSITY, UNIVERSITY - INDUSTRY FOUNDATION (UIF), priority 2019, dated 2026)
“Also recorded” adds a separate entry of the source.

What was measured:
[1] = molecular target: T1, human wild-type (WT)-pendrin (Homo sapiens, UniProt O43511); assay: Pendrin-mediated Cl^−/HCO3^− exchange activity in CHO-K1 cells; assay type: cell-based; details: for inhibition of pendrin Cl^−/HCO3^− exchange activity: CHO-K1 cells, pretreated 10 minutes
T1 construct: expressed in transfected cells
T1 sequence (O43511 1-780): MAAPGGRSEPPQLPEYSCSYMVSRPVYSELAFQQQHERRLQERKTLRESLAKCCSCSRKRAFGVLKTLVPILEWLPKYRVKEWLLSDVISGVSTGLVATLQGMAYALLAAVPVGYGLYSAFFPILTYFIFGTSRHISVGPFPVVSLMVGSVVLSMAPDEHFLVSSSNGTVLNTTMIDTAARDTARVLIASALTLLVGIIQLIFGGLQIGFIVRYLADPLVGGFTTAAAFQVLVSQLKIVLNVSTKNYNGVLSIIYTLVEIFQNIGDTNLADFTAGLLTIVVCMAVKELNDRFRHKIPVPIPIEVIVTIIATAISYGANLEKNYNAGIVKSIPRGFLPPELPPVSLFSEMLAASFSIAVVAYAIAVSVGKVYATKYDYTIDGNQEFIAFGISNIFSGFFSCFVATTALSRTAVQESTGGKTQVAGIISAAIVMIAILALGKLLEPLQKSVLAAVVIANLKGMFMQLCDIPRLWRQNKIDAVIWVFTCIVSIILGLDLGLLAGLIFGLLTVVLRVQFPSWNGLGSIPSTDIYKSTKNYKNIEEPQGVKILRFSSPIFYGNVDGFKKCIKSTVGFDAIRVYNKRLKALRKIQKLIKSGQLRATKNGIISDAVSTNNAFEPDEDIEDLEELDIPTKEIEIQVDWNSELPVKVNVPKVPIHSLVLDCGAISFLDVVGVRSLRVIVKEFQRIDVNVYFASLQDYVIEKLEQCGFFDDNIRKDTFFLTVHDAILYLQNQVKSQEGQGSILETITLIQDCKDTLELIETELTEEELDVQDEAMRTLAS
Method: For measurement of Cl^−/HCO3^− exchange activity, intracellular pH (pHi) was measured in WT-pendrin expressing CHO-K1 and HNE cells using pH sensor SNARF5-AM (Molecular Probes). The cells were treated with 5 μM SNARF5-AM for 30 minutes, and then were equipped in a perfusion chamber on the stage of a reverse fluorescence microscope (Nikon, Tokyo, Japan) equipped with a cooled charge-coupled device camera (Zyla sCMOS), image acquisition and analysis software (Meta Imaging Series 7.7). The cells were perfused with a HCO3^− buffer solution containing 120 NaCl, 5 KCl, 1 MgCl2, 1 CaCl2, 10 D-glucose, 5 HEPES, and 25 NaHCO3 (pH 7.4) (mM). To measure the Cl^−/HCO3^− exchange activity, the HCO3^− buffer solution was changed to Cl^−-free HCO3^− buffer solution. When external Cl^−-free HCO3^− buffer solution is applied, the outflow of Cl^− and inflow of HCO3^− are increased by pendrin. To maintain the pH of the HCO3^− buffer solution, the solution was continuously gas treated with 95% O2 and 5% CO2. SNARF5 fluorescence was recorded at 515±10 nm of the excitation wavelength and 640±10 nm of the emission wavelength, and intracellular pH calibration was performed with a solution including 145 mM KCl, 10 mM HEPES and […] nigericin having a calibrated pH to 6.2-7.6.
When the CHO-K1 cells overexpressing WT-pendrin and iodine sensitive YFP are treated with a high concentration Cl^− solution, Cl^− moves to the cells and HCO3^− moves outside of the cells, and this change induces acidification of intracellular pH with reduction of YFP fluorescence.

NIH3T3 cells = assay: Cell viability, MTS colorimetric analysis, NIH3T3; assay type: cell-based; details: 24 hours, up to 30 μM
Method: (A) Pendrin-mediated Cl^−/I^− exchange activity (mean±S.E., n=5). The indicated concentration of F56 was pretreated for 10 minutes. (B, C) Representative tracing of intracellular pH. The application of Cl^− free solution induced intracellular alkalization through pendrin-mediated Cl^−/HCO3^− and Cl^−/OH^− exchange activity. The indicated concentration of F56 was pretreated for 10 minutes. (D-F) The pendrin-mediated Cl^−/I^− exchange activity was measured in CHO-K1 cells expressing human pendrin. The indicated concentration of F56, PDSinh-A01 and PDSinh-C01 was pretreated for 10 minutes. (G) Summary of dose-response of F56, PDSinh-A01 and PDSinh-C01 (mean±S.E., n=3). (H, I) Effect of F56, PDSinh-A01 and PDSinh-C01 on the cell viability in NIH3T3 (H) and CHO-K1 (I) cells. The cells were treated with F56, PDSinh-A01 and PDSinh-C01 for 24 hours. The cell viability was measured by MTS colorimetric analysis (mean±S.E., n=3). NTC, non-transfected cells.
The cells were treated with F10 for 24 hours. The cell viability was determined by MTS colorimetric analysis (mean±S.E., n=3).

CC(C)(C)c1ccc(C2=NC(=Cc3ccc[nH]3)C(=O)O2)cc1 [F10, 4-((1H-pyrrol-2-yl)methylene)-2-(4-(tert-butyl)phenyl)oxazol-5 (4H)-one]
inhibition of pendrin Cl^−/HCO3^− exchange activity [1]: strongly inhibit | cytotoxicity in NIH3T3 cells (NIH3T3 cells): did not show any cytotoxicity up to 30 μM

CC(C)(C)c1ccc(C2=NC(=Cc3cccs3)C(=O)O2)cc1 [F56, 2-(4-(tert-butyl)phenyl)-4-(thiophen-2-ylmethylene)oxazol-5(4H)-one]
inhibition of pendrin Cl^−/HCO3^− exchange activity [1]: significantly inhibited; also recorded: strongly inhibited | IC50 ([1]; FIG. 4(a), read-out: 50% inhibition of Cl^−/HCO3^− exchange activity): ~10 µM | cytotoxicity in NIH3T3 cells (NIH3T3 cells): did not show cytotoxicity up to 30 μM
